“Also recorded” adds a separate entry of the source.
Columns and labels:
[1] = tested on: PAR4 Ala120 and Thr120 variants; assay: PAR4-induced platelet activation, platelets of subjects of the 3 genotypes (FIG. 1); assay type: cell-based, human; settings: subjects with and without the Thr120 variant (Ala/Ala, Ala/Thr, Thr/Thr)
Description: FIG. 1. Summary of results using all three PAR4 variants. […] Data are shown as the average of the percent of maximal activation, where maximal activation was the DMSO data.
[…] of mouse or PAC1 was added to each sample of platelets that contained compounds. 5 mL of compound was added to inhibitor samples. Tyrodes with 1% final concentration, DMSO were added to inhibitor samples with no controls. Each sample was incubated for two minutes. 5.5 mL of PAR4-AP was added to all samples except the no agonist control. Final concentrations of samples=[…]. Samples were gently mixed and sat at room temperature for 10 minutes. 50 mL of 2% paraformaldehyde was added to each sample and sat at room temperature for 10 minutes. 500 mL of Tyrodes were then added and samples were run of the C6 Accuri.

[2] = tested on: platelets expressing PAR4 Ala120; settings: individuals expressing PAR4 Ala120; cited from earlier work
[3] = tested on: platelets expressing PAR4 Thr120; settings: individuals expressing PAR4 Thr120; cited from earlier work

In the case of `Cn1c(CO)c(-c2ccccc2)c2cc([N+](=O)[O-])ccc21` [VU0099704-4], the “blockade of PAR4-induced platelet activation” value (shortened to “blockade”) [1] is reported as “effectively blocked; also recorded: greatest effective blockade”.

For `CCCNCc1c(-c2ccccc2)c2cc([N+](=O)[O-])ccc2n1C` [VU0478046-1], the “blockade” value [1] was “effectively blocked” and the “blockade” value ([1]; listed as VU478046-1) was “greatest effective blockade”.

For `COC(=O)[C@H](c1ccccc1Cl)N1CCc2sccc2C1` [clopidogrel], the inhibiting platelet aggregation [2] is given as “selective” and the inhibiting platelet aggregation [3] is given as “not effective”.

In the case of `CNCc1c(-c2ccccc2)c2cc([N+](=O)[O-])ccc2n1C` [VU0478944-1], the “blockade” value [1] is reported as “effectively blocked; also recorded: greatest effective blockade”.

From patent publication US10590126B2, “Non-selective protease activated receptor 4 ALA120THR isoform antagonist” (THOMAS JEFFERSON UNIVERSITY, priority 2015, dated 2020)
